Laboratory results as given in the NIST ThermoML archive (doi:10.1016/j.jct.2008.09.018).

Tests used:
[1] = Liquid; for mass density: Vibrating tube method; for speed of sound: Pulse-echo method; for viscosity: Capillary tube (Ostwald / Ubbelohde) method
[2] = refractive index (Na D-line) (dimensionless); conditions: 298.15 K; 101.33 kPa; Liquid; Standard Abbe refractometry
[3] = xn = mol fraction of the nth substance listed; conditions: 101 kPa, Liquid, x1 = 1; for speed of sound: Pulse-echo method; for viscosity: Capillary tube (Ostwald / Ubbelohde) method; for mass density: Vibrating tube method

OCCO [1,2-ethanediol]
[1]
Conditions | mass density [kg/m3] | speed of sound [m/s] | viscosity [mPa·s]
283.15 K, 101.33 kPa | 1120.32 | – | –
285.64 K, 101.33 kPa | 1118.6 | – | –
290.64 K, 101.33 kPa | 1115.12 | – | –
293.14 K, 101.33 kPa | 1113.37 | – | –
293.15 K, 101 kPa | – | 1666.7 | –
295.64 K, 101.33 kPa | 1111.62 | – | –
298.15 K, 101.33 kPa | – | 1654.9 | 16.95
300.65 K, 101.33 kPa | 1108.12 | – | –
303.15 K, 101 kPa | 1106.46 | 1643.1 | 13.83
303.15 K, 101.33 kPa | 1106.37 | – | –
305.64 K, 101.33 kPa | 1104.61 | – | –
308.15 K, 101 kPa | – | 1631.2 | 11.44
310.65 K, 101.33 kPa | 1101.07 | – | –
313.14 K, 101.33 kPa | 1099.3 | – | –
313.15 K, 101 kPa | 1099.23 | 1619.3 | 9.565
315.65 K, 101.33 kPa | 1097.52 | – | –
320.64 K, 101.33 kPa | 1093.95 | – | –
323.15 K, 101.33 kPa | 1092.15 | – | –

Conditions | refractive index
[2] | 1.4307

OCCO [1,2-ethanediol] + CCCCCCCCCO
[3]
Conditions | mass density [kg/m3] | speed of sound [m/s] | viscosity [mPa·s]
293.15 K | – | 1666.7 | –
298.15 K | – | 1654.9 | 16.95
303.15 K | 1106.46 | 1643.1 | 13.83
308.15 K | – | 1631.2 | 11.44
313.15 K | 1099.23 | 1619.3 | 9.565

CCCCCCCCCO [nonan-1-ol]
[1]
Conditions | mass density [kg/m3] | speed of sound [m/s] | viscosity [mPa·s]
283.15 K, 101.33 kPa | 834.614 | – | –
285.64 K, 101.33 kPa | 832.923 | – | –
288.15 K, 101.33 kPa | 831.224 | – | –
290.65 K, 101.33 kPa | 829.521 | – | –
293.14 K, 101.33 kPa | 827.816 | – | –
293.15 K, 101 kPa | – | 1381.6 | –
295.64 K, 101.33 kPa | 826.106 | – | –
298.14 K, 101.33 kPa | 824.391 | – | –
298.15 K, 101.33 kPa | 824.48 | 1364.4 | 9.494
300.65 K, 101.33 kPa | 822.671 | – | –
303.14 K, 101.33 kPa | 820.949 | – | –
303.15 K, 101 kPa | 821.05 | 1347.4 | 7.994
305.64 K, 101.33 kPa | 819.22 | – | –
308.14 K, 101.33 kPa | 817.486 | – | –
308.15 K, 101 kPa | 817.57 | 1330.5 | 6.713
310.64 K, 101.33 kPa | 815.748 | – | –
313.15 K, 101 kPa | 814.19 | 1313.6 | 5.657
313.15 K, 101.33 kPa | 814.001 | – | –
315.65 K, 101.33 kPa | 812.251 | – | –
318.15 K, 101.33 kPa | 810.496 | – | –
320.65 K, 101.33 kPa | 808.73 | – | –
323.15 K, 101.33 kPa | 806.96 | – | –

Conditions | refractive index
[2] | 1.4323
